Measured values published in patent publication US12065438B2, “Substituted tricyclic compounds as indoleamine 2,3-dioxygenase inhibitors” (Merck Sharp & Dohme LLC, priority 2019, dated 2024).

Target: IDO1 (Homo sapiens, UniProt P14902)
Assay: IDO1 Cellular Assay in HeLa Cells Stimulated with IFNγ
Type: cell-based
Parameters: endogenous in cells; host or cells: HeLa cells stimulated with IFNγ
Conditions: HeLa cells stimulated with IFNγ 100 ng/mL, 300 uM L-tryptophan, about 48 hours, fluorescence readout; read-out: IDO1 HELA Cell Assay, IC50
Method: Biological Assays IDO1 Cellular Assay in HeLa Cells Stimulated with IFNγ HeLa cells were cultured in complete HeLa culture medium (90% EMEM, 10% heat-inactivated fetal bovine serum) and expanded to about 1×10^9 cells. The cells were then collected and frozen down at 1×10^7 cells/vial in 1 mL frozen medium (90% complete HeLa culture medium, 10% DMSO). Compounds to be tested were serially diluted in ten 3-fold steps in DMSO starting from 10 mM DMSO stocks in Echo low volume plate(s). Compound dilutions or DMSO alone were then dispensed from the dilution plate(s) into Greiner black 384-well assay plate(s) (catalog #781086, 50 nL/well) using an Echo 550 acoustic liquid handler (Labcyte). Frozen HeLa cells were thawed and transferred into HeLa assay medium (99% complete HeLa culture medium, 1% Pen/Strep) with 20 mL medium/vial of cells. The cells were spun down at 250 g in a table top centrifuge for 5 min and suspended in same volume of HeLa assay medium. The cells were then counted and adjusted to a density of 2×10^5 cells/mL in HeLa assay medium. Sterile L-tryptophan were added to the cells with final concentration of 300 uM L-tryptophan. A small aliquot (2 mL/plate) of HeLa cells were set aside and were not treated with IFNγ, to serve as the Max-E control. The rest of HeLa cells were added with sterile IFNγ (Cat #285-IF, R & D systems) with a final concentration of 100 ng/mL. HeLa cells with and without IFNγ were dispensed to the respective wells of 384-well assay plates containing the compounds. The plates were incubated for about 48 hours at a 37° C., 5% CO2 incubator. Afterwards, 12 μL of 0.5 M methyl isonipecotate in dimethyl sulfoxide were added into each well and the plates were sealed and incubated at 37° C. without CO2 overnight. The plates were centrifuged for 1 min at 200×g. The resulting fluorescence was measured in a Spectramax plate reader (Molecular Devices) with a 400 nm excitation filter and a 510 nm emission filter. The fluorescence intensity of each well was corrected for the background observed in wells with non-IFNγ-treated cells and was expressed as a fraction of the intensity observed in wells of IFNγ-treated cells and DMSO only. Potencies were calculated by […] least squares fit to the four parameter logistic IC50 equation.

IDO1, sequence (P14902 whole entry): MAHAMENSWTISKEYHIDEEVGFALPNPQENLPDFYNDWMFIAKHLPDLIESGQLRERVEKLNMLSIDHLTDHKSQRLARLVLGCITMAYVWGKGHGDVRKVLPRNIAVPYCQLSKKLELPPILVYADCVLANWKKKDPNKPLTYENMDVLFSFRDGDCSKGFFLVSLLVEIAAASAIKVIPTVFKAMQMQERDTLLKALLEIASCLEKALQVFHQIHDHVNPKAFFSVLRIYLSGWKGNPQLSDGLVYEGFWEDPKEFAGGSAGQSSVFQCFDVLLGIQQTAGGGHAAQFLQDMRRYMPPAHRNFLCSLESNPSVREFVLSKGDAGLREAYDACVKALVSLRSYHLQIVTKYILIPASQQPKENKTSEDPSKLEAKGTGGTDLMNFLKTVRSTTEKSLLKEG

Molecule | IC50 [nM]
Cc1nccc(N2CC3CC3c3nc(C4(NC(=O)c5ccc(F)cc5)CC4C)ccc32)n1 (racemic) [Example 47, 4-fluoro-N-(2-methyl-1-(5-(2-methylpyrimidin-4-yl)-6,6a, 7,7a-tetrahydro-5H-cyclopropa[c][1, 5]naphthyridin-2-yl)cyclopropyl)benzamide] | 52
O=C(NC1(c2ccc3c(n2)C2CC2CN3)CC1)c1ccc(F)cc1 (centres unmarked) [Example 11, 4-fluoro-N-(1-(6,6a,7,7a-tetrahydro-5H-cyclopropa[c][1,5]naphthyridin-2-yl)cyclopropyl)benzamide] | 2300
Cc1nccc(N2C[C@@H]3C[C@@H]3c3nc([C@]4(NC(=O)c5ccc(F)cc5)C[C@@H]4C)ccc32)n1 [Example 42, 4-fluoro-N-((1S,2S)-2-methyl-1-((6aR,7aS)-5-(2-methyl-pyrimidin-4-yl)-6,6a,7,7a-tetra-hydro-5H-cyclopropa[c][1,5]-naphthyridin-2-yl)cyclopropyl)-benzamide] | 3.17
4-fluoro-N-(2-((6aS,7aR)-5-(2-methylpyrimidin-4-yl)-6,6a,7,7a-tetrahydro-5H-cyclopropa[c][1,5]naphthyridin-2-yl)propan-2-yl)benzamide [Example 31] | 80.6
Cc1nccc(N2CC3CC3c3cc(C4(NC(=O)c5ccc(F)cc5)CC4)ccc32)n1 [Example 1, 4-fluoro-N-(1-((1aR,7bS)-3-(2-methylpyrimidin-4-yl)-1a,2,3,7b-tetrahydro-1H-cyclopropa[c]quinolin-6-yl)cyclopropyl)benzamide] | 1.67
Cc1nccc(N2C[C@@H]3C[C@@H]3c3cc(C4(NC(=O)c5ccc(F)cc5)CC4)ccc32)n1 (single isomer, unassigned) [Example 2] | 1.5
Cc1nccc(N2C[C@H]3C[C@H]3c3nc([C@]4(NC(=O)c5ccc(F)cc5)C[C@H]4C)ccc32)n1 [Example 44, 4-fluoro-N-((1S,2R)-2-methyl-1-((6aS,7aR)-5-(2-methyl-pyrimidin-4-yl)-6,6a,7,7a-tetra-hydro-5H-cyclopropa[c][1,5]-naphthyridin-2-yl)cyclopropyl)-benzamide] | 4.34
C[C@@H](NC(=O)c1ccc(F)cc1)c1ccc2c(n1)[C@H]1C[C@H]1CN2C(=O)OC1CC1 [Example 28, cyclopropyl (6aR,7aS)-2-((R)-1-(4-fluorobenzamido)-ethyl)-6,6a,7,7a-tetrahydro-5H-cyclopropa[c][1,5]-naphthyridine-5-carboxylate] | 29.3
Cc1nccc(N2C[C@@H]3C[C@@H]3c3nc([C@]4(NC(=O)c5ccc(F)cc5)C[C@H]4C)ccc32)n1 [Example 39, 4-fluoro-N-((1S,2R)-2-methyl-1-((6aR,7aS)-5-(2-methyl-pyrimidin-4-yl)-6,6a,7,7a-tetra-hydro-5H-cyclopropa[c][1,5]-naphthyridin-2-yl)cyclopropyl)-benzamide] | 10.5
O=C(C1CC1)N1CC2CC2c2cc(C3(C(=O)Nc4ccc(F)cc4)CCC3)ccc21 (single isomer, unassigned) [Example 3, 1-(3-(cyclopropanecarbonyl)-1a,2,3,7b-tetrahydro-1H-cyclopropa[c]quinolin-6-yl)-N-(4-fluorophenyl)cyclobutanecarboxamide] | 44
Cc1nccc(N2c3ccc(C4(NC(=O)c5ccc(F)cc5)CC4)nc3C3CC2C3)n1 [Example 51, 4-fluoro-N-(1-(1-(2-methylpyrimidin-4-yl)-1,2,3,4-tetrahydro-2,4-methano-1,5-naphthyridin-6-yl)cyclopropyl)benzamide] | 8.08
O=C(NC1(c2ccc3c(n2)[C@H]2C[C@H]2CN3C(=O)OC2CCOCC2)CC1)c1ccc(F)cc1 [Example 22, tetrahydro-2H-pyran-4-yl (6aR,7aS)-2-(1-(4-fluorobenzamido)cyclo-propyl)-6,6a,7,7a-tetra-hydro-5H-cyclopropa[c]-[1,5]naphthyridine-5-carboxylate] | 61.6
CC(C)(C)OC(=O)N1C[C@@H]2C[C@@H]2c2nc(C3(NC(=O)c4ccc(F)cc4)CC3)ccc21 [Example 52, tert-butyl (6aR,7aS)-2-(1-(4-fluorobenzamido)cyclopropyl)-6,6a,7,7a-tetrahydro-5H-cyclo-propa[c][1,5]naphthyridine-5-carboxylate] | 96.6
Cc1nccc(N2C[C@@H]3C[C@@H]3c3nc([C@@]4(NC(=O)c5ccc(F)cc5)C[C@@H]4C)ccc32)n1 [Example 40, 4-fluoro-N-((1R,2S)-2-methyl-1-((6aR,7aS)-5-(2-methyl-pyrimidin-4-yl)-6,6a,7,7a-tetra-hydro-5H-cyclopropa[c][1,5]-naphthyridin-2-yl)cyclopropyl)-benzamide] | 2.83
C[C@H](NC(=O)c1ccc(F)cc1)c1ccc2c(n1)[C@@H]1C[C@@H]1CN2C(=O)OC1CC1 [Example 26, cyclopropyl (6aS,7aR)-2-((S)-1-(4-fluorobenzamido)-ethyl)-6,6a,7,7a-tetrahydro-5H-cyclopropa[c][1,5]-naphthyridine-5-carboxylate] | 35
O=C(NC1(c2ccc3c(n2)C2CC(C2)N3C(=O)OCc2ccccc2)CC1)c1ccc(F)cc1 [Example 49, benzyl 6-(1-(4-fluorobenzamido)cyclopropyl)-3,4-dihydro-2,4-methano-1,5-naphthyridine-1(2H)-carboxylate] | 20.4
Cc1nccc(N2c3ccc(C4(NC(=O)c5ccc(F)cc5)CC4)cc3CC3CCC32)n1 (centres unmarked) [Example 5, 4-fluoro-N-(1-(3-(2-methylpyrimidin-4-yl)-1,2,2a,3,8,8a-hexahydrocyclobuta[b]quinolin-6-yl)cyclopropyl)benzamide] | 4.71
CCC(NC(=O)c1ccc(F)cc1)c1ccc2c(n1)C1CC1CN2C(=O)OC1CC1 (single isomer, unassigned) [Example 36, cyclopropyl 2-(1-(4-fluorobenzamido)propyl)-6,6a,7,7a-tetrahydro-5H-cyclopropa[c][1,5]naphthyridine-5-carboxylate] | 211
CC(NC(=O)c1ccc(F)cc1)c1ccc2c(n1)C1CC1CN2C(=O)OC(C)(C)C (centres unmarked) [Example 24, tert-butyl 2-(1-(4-fluorobenzamido)ethyl)-6,6a,7,7a-tetrahydro-5H-cyclopropa[c][1,5]naphthyridine-5-carboxylate] | 20.9
CC(C)(C)OC(=O)N1CC2CC2c2nc(C3(NC(=O)c4ccc(F)cc4)CC3)ccc21 (centres unmarked) [Example 10, tert-butyl 2-(1-(4-fluorobenzamido)cyclopropyl)-6,6a,7,7a-tetrahydro-5H-cyclopropa[c][1,5]naphthyridine-5-carboxylate] | 96.7
Cc1nccc(N2C[C@H]3C[C@H]3c3nc([C@@]4(NC(=O)c5ccc(F)cc5)C[C@H]4C)ccc32)n1 [Example 43, 4-fluoro-N-((1R,2R)-2-methyl-1-((6aS,7aR)-5-(2-methyl-pyrimidin-4-yl)-6,6a,7,7a-tetra-hydro-5H-cyclopropa[c][1,5]-naphthyridin-2-yl)cyclopropyl)-benzamide] | 3.27
CC(C)(NC(=O)c1ccc(F)cc1)c1ccc2c(n1)C1CC1CN2 (centres unmarked) [Example 54, 4-fluoro-N-(2-(6,6a,7,7a-tetra-hydro-5H-cyclopropa[c][1,5]-naphthyridin-2-yl)propan-2-yl)-benzamide] | 4900
CC(C)(NC(=O)c1ccc(F)cc1)c1ccc2c(n1)[C@H]1C[C@H]1CN2C(=O)OC1CC1 (single isomer, unassigned) [Example 34] | 221
Cc1nccc(N2C[C@H]3C[C@H]3c3nc([C@@]4(NC(=O)c5ccc(F)cc5)C[C@@H]4C)ccc32)n1 [Example 45, 4-fluoro-N-((1R,2S)-2-methyl-1-((6aS,7aR)-5-(2-methyl-pyrimidin-4-yl)-6,6a,7,7a-tetra-hydro-5H-cyclopropa[c][1,5]-naphthyridin-2-yl)cyclopropyl)-benzamide] | 3.39
CCC(NC(=O)c1ccc(F)cc1)c1ccc2c(n1)C1CC1CN2c1ccnc(C)n1 (racemic) [Example 38, 4-fluoro-N-(1-(5-(2-methyl-pyrimidin-4-yl)-6,6a,7,7a-tetrahydro-5H-cyclopropa[c]-[1,5]naphthyridin-2-yl)propyl)-benzamide] | 6.77
Cc1nccc(N2C[C@@H]3C[C@@H]3c3nc([C@@]4(NC(=O)c5ccc(F)cc5)C[C@H]4C)ccc32)n1 [Example 41, 4-fluoro-N-((1R,2R)-2-methyl-1-((6aR,7aS)-5-(2-methyl-pyrimidin-4-yl)-6,6a,7,7a-tetra-hydro-5H-cyclopropa[c][1,5]-naphthyridin-2-yl)cyclopropyl)-benzamide] | 2.36
